From ChEMBL document CHEMBL1799913, “A combined spectroscopic and crystallographic approach to probing drug-human serum albumin interactions” (Bioorg Med Chem, 2010) come the findings set out here.

A short description of data set [1]: Dissociation constant, pKa of the compound by spectrophotometric titration. It is filed as physicochemical.
The next data set is described as follows: physchem. The settings on record: phosphate buffer, pH 7.4.
Data set [2] in a line: Lipophilicity, log P of the compound in octanol.
Data set [3] has as its target T1, Albumin (Homo sapiens, UniProt P02768). The settings on record: isolated protein.
Description: Binding affinity to fatty acid-containing human serum albumin by equilibrium dialysis
Data set [4] has as its target T1, Albumin. The settings on record: isolated protein. This is another data set of the same source.
Description: Binding affinity to fatty acid-free human serum albumin by equilibrium dialysis
A short description of data set [5]: Octanol-buffer partition coefficient, log D of the compound at pH 7.4 by shake-flask method.
The target of data set [6] is T2, human serum albumin site 2 (Homo sapiens, UniProt P02768). The experiment in a line: in vitro. The settings on record: pH 7.4, probe dansylsarcosine.
Description: Displacement of radiolabeled dansylsarcosine from human serum albumin site 2 in phosphate buffer at pH 7.4 at 100 uM by fluorescence spectroscopy
Data set [7] addresses T3, human serum albumin site 1 (Homo sapiens, UniProt P02768). As to the kind of experiment: in vitro. The settings on record: pH 7.4, probe warfarin.
Description: Displacement of radiolabeled warfarin from human serum albumin site 1 in phosphate buffer at pH 7.4 at 100 uM by fluorescence spectroscopy
The target in data set [8] is T2, human serum albumin site 2. As to the kind of experiment: in vitro. The settings on record: fatty acid-free human serum albumin, pH 7.4, probe dansylsarcosine.
Description: Displacement of radiolabeled dansylsarcosine from fatty acid-free human serum albumin site 2 in phosphate buffer at pH 7.4 at 12 uM by fluorescence spectroscopy
Data set [9] concerns the target T3, human serum albumin site 1. As to the kind of experiment: in vitro. The settings on record: fatty acid-free human serum albumin, pH 7.4, probe warfarin.
Description: Displacement of radiolabeled warfarin from fatty acid-free human serum albumin site 1 in phosphate buffer at pH 7.4 at 12 uM by fluorescence spectroscopy
Data set [10] has as its target T2, human serum albumin site 2. As to the kind of experiment: in vitro. The settings on record: fatty acid containing human serum albumin, pH 7.4, probe dansylsarcosine.
Description: Displacement of radiolabeled dansylsarcosine from fatty acid containing human serum albumin site 2 in phosphate buffer at pH 7.4 at 12 uM by fluorescence spectroscopy
The target in data set [11] is T3, human serum albumin site 1. The experiment in a line: in vitro. The settings on record: fatty acid containing human serum albumin, pH 7.4, probe warfarin.
Description: Displacement of radiolabeled warfarin from fatty acid containing human serum albumin site 1 in phosphate buffer at pH 7.4 at 12 uM by fluorescence spectroscopy
Data set [12] has as its target T1, Albumin. The experiment in a line: Binding affinity to human serum albumin by equilibrium dialysis. Format: ADME. The settings on record: isolated protein. (Equilibrium dialysis compares concentrations on both sides of a semipermeable membrane.)
Data set [13] addresses T2, human serum albumin site 2. The experiment in a line: Displacement of […] dansylsarcosine from human serum albumin site 2 in phosphate buffer at pH 7.4 at 4 uM by fluorescence spectroscopy. The settings on record: pH 7.4, probe dansylsarcosine, read-out: Activity.
Data set [14] concerns the target T3, human serum albumin site 1. The experiment in a line: Displacement of […] warfarin from human serum albumin site 1 in phosphate buffer at pH 7.4 at 4 uM by fluorescence spectroscopy. The settings on record: pH 7.4, probe warfarin, read-out: Activity.

A word on the pKa: it is the pH at which an ionisable group is half protonated. Low values mean a stronger acid or weaker base, high ones a weaker acid or stronger base. Usually solubility stands for the concentration that dissolves in the medium under given conditions. Read a high solubility as a readily soluble substance. What is called logP is a log measure of how a compound divides between an organic and an aqueous phase. A high value points to a more lipophilic compound. Broadly, the logD is lipophilicity at a set pH, counting ionised and neutral species.

Converted amounts (≈) assume the structure as drawn.

T2 sequence (P02768 whole entry): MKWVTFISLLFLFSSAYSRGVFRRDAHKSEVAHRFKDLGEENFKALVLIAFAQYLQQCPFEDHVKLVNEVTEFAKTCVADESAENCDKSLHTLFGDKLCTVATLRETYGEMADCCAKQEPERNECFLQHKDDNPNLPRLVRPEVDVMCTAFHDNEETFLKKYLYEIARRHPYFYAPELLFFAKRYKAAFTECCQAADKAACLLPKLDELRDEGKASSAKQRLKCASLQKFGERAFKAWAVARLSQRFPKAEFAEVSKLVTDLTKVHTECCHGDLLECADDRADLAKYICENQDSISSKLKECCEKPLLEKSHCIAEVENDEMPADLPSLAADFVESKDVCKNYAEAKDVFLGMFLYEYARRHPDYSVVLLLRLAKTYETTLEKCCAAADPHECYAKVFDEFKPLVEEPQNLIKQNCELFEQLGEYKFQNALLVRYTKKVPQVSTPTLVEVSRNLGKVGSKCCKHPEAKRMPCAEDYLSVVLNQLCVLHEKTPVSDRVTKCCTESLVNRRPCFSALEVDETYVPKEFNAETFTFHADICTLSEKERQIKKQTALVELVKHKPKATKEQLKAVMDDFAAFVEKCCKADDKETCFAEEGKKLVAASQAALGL
T3 sequence (P02768 whole entry): as above
T1 sequence (P02768 whole entry): as above
Description for physchem: Aqueous solubility of the compound in phosphate buffer solution of pH 7.4 after 24 hrs by LC-UV analysis

In [1], `O=C(O)C[C@@H]1c2ccccc2C[C@H]1NC(=O)c1cc2cc(F)ccc2[nH]1` yielded a pKa of 3.95. In “physchem”, this compound registered a solubility at 24 h of 1930 µM (≈ 680 µg/mL). This compound also registered a logP in [2] of 4.71. Moreover, the figures for the “log Ks” value on Albumin [3] and at Albumin [4] were 6.11 and 5.97, respectively. The compound also yielded a log distribution coefficient (logD) in data set [5] of 1.26.
Turning to `O=C(O)CCC[C@@H]1c2ccccc2C[C@H]1NC(=O)c1cc2cc(F)ccc2[nH]1`, the pKa in data set [1] is 4.24. In the data set “physchem”, this compound came in with a solubility at 24 h of 86 µM (≈ 32.7 µg/mL). In data set [2], the logP worked out at 5.11. Besides, the “log Ks” value at Albumin [3] and on Albumin [4] was 5.41 each time. In data set [5], this compound yielded a logD of 1.95.
`CC(=O)Nc1nc(C)c(-c2cnc(F)c(NS(=O)(=O)c3sc(C)nc3C)c2)s1`: the figures for the inhibition at 100 µM in data set [6] and in [7] were 7% and 6%, respectively. The compound also had a pKa in data set [1] of 4.71. In the data set “physchem”, the solubility at 24 h was more than 1700 µM. In addition, the “log Ks” value on Albumin [3] is recorded as 5.62; on Albumin [4], 5.88.
For `CC(=O)CC(c1ccc([N+](=O)[O-])cc1)c1c(O)c2ccccc2oc1=O` (stereo not given) [ACENOCOUMAROL], the inhibition at 12 µM in data set [8] was 12.5%; in data set [9], 49.8%; in data set [10], 39%; in [11] it was 54.6%.
For `NS(=O)(=O)c1cc2c(cc1Cl)N=CNS2(=O)=O` [CHLOROTHIAZIDE], the inhibition at 12 µM amounted to 8% in [8], 28.9% in data set [9], 18.8% in data set [10] and 16% in [11].
With `CCCNC(=O)NS(=O)(=O)c1ccc(Cl)cc1` [CHLORPROPAMIDE], the inhibition at 12 µM in data set [8] amounted to 28.5%; in data set [9], 19.2%; in [10], 26%; in [11], 18.5%.
With `O=C1CN=C(c2ccccc2Cl)c2cc([N+](=O)[O-])ccc2N1` [CLONAZEPAM], the inhibition at 12 µM in [8] was determined as 16.2%; in data set [9], 0%; in data set [10] it was 19.5%; in [11] it was 3.8%.
For `Cc1onc(-c2ccccc2Cl)c1C(=O)N[C@@H]1C(=O)N2[C@@H]1SC(C)(C)[C@@H]2C(=O)O` [CLOXACILLIN], in that order: 24.1%, 0%, 18.1% and 5.7%.
On to `CN(C)c1cccc2c(S(=O)(=O)N(C)CC(=O)O)cccc12` [DANSYLSARCOSINE], for which the “log Ks” value on Albumin [12] stood at 5.39.
On to `O=c1oc2ccccc2c(O)c1Cc1c(O)c2ccccc2oc1=O` [DICUMAROL], for which the inhibition at 12 µM in data set [8] stood at 88.8%; in data set [9], 86.4%; in data set [10], 19.8%; in [11], 10.5%.
For `O=C(O)CCC(=O)c1ccc(-c2ccccc2)cc1` [FENBUFEN], in that order: 70%, 0%, 66.2% and 0%.
Turning to `O=C(O)c1ccccc1Nc1cccc(C(F)(F)F)c1` [FLUFENAMIC ACID], the inhibition at 12 µM in data set [8] worked out at 95.8%; in data set [9] it was 48.6%; in data set [10] it was 91.2%; in [11], 68.6%. In addition, the “log Ks” value at Albumin [12] is on record as 6.68. Also, the inhibition at 4 µM in data set [13] was found to be 73%; in data set [14] it was 24%.
With `CCN(CC)CCN1C(=O)CN=C(c2ccccc2F)c2cc(Cl)ccc21` [FLURAZEPAM], the inhibition at 12 µM in [8] was 4.3%; in data set [9], 0%; in data set [10], 2.7%; in data set [11] it was 6.3%. For the same compound, at Albumin [12], the “log Ks” value is listed as 3.38.
`NS(=O)(=O)c1cc(C(=O)O)c(NCc2ccco2)cc1Cl` [FUROSEMIDE]: the inhibition at 12 µM in [8] is 19.2%; in data set [9], 36.2%; in [10], 49%; in [11] it was 47.3%.
Regarding `COc1ccc(Cl)cc1C(=O)NCCc1ccc(S(=O)(=O)NC(=O)NC2CCCCC2)cc1` [GLYBURIDE], the inhibition at 12 µM was determined as 33.9% in data set [8], 28.6% in [9], 62.2% in [10] and 50.7% in [11]. This compound gave a solubility at 24 h in the data set “physchem” of 11 µM (≈ 5.43 µg/mL).
In the case of `Cc1cc(NC(=O)C2=C(O)c3ccccc3S(=O)(=O)N2C)no1` [ISOXICAM], the inhibition at 12 µM in [8] was determined as 33.1%; in [9], 51.7%; in data set [10], 32.6%; in data set [11], 38%.
For `COc1ccc2cc([C@H](C)C(=O)O)ccc2c1` [NAPROXEN], in that order: 91.3%, 24.7%, 79.9% and 38.8%.
The corresponding values for `O=C1NC(=O)C(c2ccccc2)(c2ccccc2)N1` [PHENYTOIN] are 0%, 4%, 18.8% and 9.3%.
On to `CC(C)NCC(O)COc1cccc2[nH]ccc12` (stereo not given) [PINDOLOL], for which the inhibition at 12 µM in data set [8] came to 0.2%; in data set [9], 0%; in data set [10], 9.5%; in data set [11] it was 0%. Further, the “log Ks” value on Albumin [12] turned out to be 2.65.
Take `CN1C(C(=O)Nc2ccccn2)=C(O)c2ccccc2S1(=O)=O` [PIROXICAM]: the inhibition at 12 µM in data set [8] was found to be 45.5%; in data set [9], 6.7%; in data set [10] it was 44.8%; in data set [11], 53.5%.
With `O=C1C(CC[S+]([O-])c2ccccc2)C(=O)N(c2ccccc2)N1c1ccccc1` (stereo not given) [SULFINPYRAZONE], the inhibition at 12 µM in [8] came out at 18.6%; in [9] it was 35.2%; in [10], 34.2%; in [11], 44.1%.
For `CC/C(=C(\c1ccccc1)c1ccc(OCCN(C)C)cc1)c1ccccc1` [TAMOXIFEN], in that order: 16.3%, 0%, 62.2% and 0%.
As for `CN1C(C(=O)Nc2ccccn2)=C(O)c2sccc2S1(=O)=O` [TENOXICAM], the inhibition at 12 µM amounted to 27.4% in data set [8], 52.3% in data set [9], 38.5% in [10] and 61.7% in data set [11].
For the compound `N[C@@H](Cc1c[nH]c2ccccc12)C(=O)O` [TRYPTOPHAN], the inhibition at 12 µM in [8] was found to be 15.3%; in data set [9], 0%; in data set [10], 15.1%; in data set [11], 0%.
